Assay [1] has as its target PrPres (Mesocricetus auratus, UniProt P04273). To be noted: for PrPres bound to resin in five 10 ml columns in series / removal of PrPres: 300 ml RBCC spiked with 0.1% scrapie hamster brain homogenate, Western blot of bead eluates; for Resin needed to remove all PrPres to the limit of detection of the Western blot: 300 ml spiked RBCC, 3 columns of 10 ml.
Assay [2] deals with haPrPc and haPrPsc (Mesocricetus auratus, UniProt P04273). As to conditions: 3-mer library, hamster brain homogenates.
Chain of haPrPc and haPrPsc (P04273 23-231 limits assumed): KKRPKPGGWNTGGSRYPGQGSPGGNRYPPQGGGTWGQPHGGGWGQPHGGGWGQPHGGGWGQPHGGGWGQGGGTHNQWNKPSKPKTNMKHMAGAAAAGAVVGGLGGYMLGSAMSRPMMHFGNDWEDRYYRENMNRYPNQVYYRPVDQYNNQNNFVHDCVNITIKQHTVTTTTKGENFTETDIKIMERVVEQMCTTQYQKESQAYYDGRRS
The target in assay [3] is PrPc (Mesocricetus auratus, UniProt P04273). To be noted: 1% normal hamster brain homogenate, 0.5 ml column.
Chain of PrPc (P04273 23-231 limits assumed): as above

These results are taken from US8604161B2 (priority 2002, dated 2013).

Chain of PrPres (P04273 23-231 limits assumed): as above

Regarding (D)ES(na)PRQ-EACA [SEQ ID NO:226], the “PrPres bound to resin in five 10 ml columns in series / removal of PrPres” value (“PrPres bound … in series / removal of PrPres” for short) in assay [1] is recorded as “decreasing amounts of PrPres on columns 1 through 3”. In the case of SYA [SEQ ID NO:108], in assay [1], the “PrPres bound … in series / removal of PrPres” value is recorded as “remove all of the PrPres to the limit of detection of the Western blot in 3 columns” and the “Resin needed to remove all PrPres to the limit of detection of the Western blot” value was 30 mL. For the substance VQR [SEQ ID NO:111], the “Preferential binding of PrPsc over PrPc” value in assay [2] is reported as “bind preferentially PrPsc over PrPc”. Consider DVR [SEQ ID NO:114], for which the “Preferential binding of PrPsc over PrPc” value in assay [2] is given as “bind preferentially PrPsc over PrPc”. Also, in assay [1], the “PrPres bound … in series / removal of PrPres” value is “remove all of the PrPres to the limit of detection of the Western blot in 3 columns” and the “Resin needed to remove all PrPres to the limit of detection of the Western blot” value was 30 mL. Besides, the “Location of bound PrPc on chopped resin beads” value in assay [3] was “protein bound to the exterior of the beads”. As for YVHEA [SEQ ID NO:63], the “PrPres bound … in series / removal of PrPres” value in assay [1] is given as “decreasing amounts of PrPres on columns 1 through 3”.

As for WFVEA [SEQ ID NO:225], the “PrPres bound … in series / removal of PrPres” value in assay [1] was “does not bind and remove all of the prion protein to the limit of detection”.
